Consider four molecules from US10123998B2, “Kinase modulation, and indications therefor” (Plexxikon Inc., priority 2012, dated 2018).

Assay [1] has as its system Osteoclast precursor cells. The experiment in a line: Osteoclast differentiation assay. It is filed as cell-based. The protocol: Further, an osteoclast differentiation assay is used to assess the efficacy of Fms inhibitors for treating bone disease such as osteoarthritis. On day 0, Osteoclast Medium BulletKit (Lonza catalog # PT-8001, containing Media, FBS, L-Glutamine, PenStrep, RANKL, and M-CSF) media is thawed and the FBS, L-glutamine and PenStrep from the kit is added to 100 mL of Osteoclast Precursor Basal medium to provide the Osteoclast Precursor Growth Medium (OPGM). This is warmed to 37° C. Osteoclast precursor cells (Lonza catalog #2T-110) frozen in cryovial are warmed to 37° C. and transferred to a 50 mL conical tube. The cryovial is rinsed with OPGM and added dropwise to the conical tube of cells with swirling, then the volume is adjusted to 20-30 mL with addition of OPGM. The cells are centrifuged at 200×g for 15 minutes at room temperature and all but approximately 3 mL of supernatant is removed to a new conical tube. The cells are suspended in the remaining supernatant and the volume is adjusted to 10-15 mL with OPGM added dropwise with swirling. The cells are centrifuged at 200×g for 15 minutes at room temperature and all but approximately 1 mL of supernatant is removed. The cells are resuspended in the remaining supernatant, counted, and the volume adjusted with an appropriate amount of OPGM to provide approximately 1×10^5 cells/mL. A 0.1 mL aliquot of cells is added to each well of a 96-well plate. Compound to be tested is prepared in DMSO for plating at a high concentration of 2.5 mM, with 8 point 1:3 serial dilutions. A 1 μL aliquot of each compound dilution is added to a 96 well v-bottom polypropylene plate and 0.124 mL of OPGM is added to the compound. Then 50 μL of the compound in OPGM is added to the osteoclast precursor cells in 96-well plate (providing highest test concentration of 5 μM). RANKL (2 μg) from the BulletKit is reconstituted in 1 mL of OPGM, then vortexed and centrifuged briefly. A 792 μL aliquot of RANKL is added to 6 mL of OPGM and 50 μL is added to low control wells. Then 76.6 μL M-CSF ([…]) from the BulletKit is added to the remaining 5.8 mL of OPGM/RANKL solution (4×RANKL/M-CSF/OPGM). A 50 μL aliquot of this is added to the remaining wells, and the remainder is stored at 4° C. for later use. The plate is incubated at 37° C. for 6 days, then the remaining OPGM/RANKL/M-CSF solution is warmed to 37° C. The remaining approximately 198 μL is combined with 6 mL of OPGM. The media is aspirated from the osteoclast wells and 100 μL of RANKL/OPGM is added to the low controls. The remaining RANKL/OPGM is combined with the approximately 18.5 μL of remaining M-CSF. The remaining 4×RANKL/M-CSF/OPGM from day 0 is diluted to 1× and combined with the freshly prepared solution. A 0.1 mL aliquot of this is added to each osteoclast well and incubated for 37° C. for 1 day. The Acid Phosphatase kit (Cayman Chemical catalog #10008051) is warmed to room temperature. The assay buffer is diluted 5 mL with 45 mL of water. For each plate, two substrate tablets are dissolved in 4.5 mL of the assay buffer, mixing by vortex to break up the tablet. Stop solution is diluted 12 mL with 36 mL of water. In a tissue culture hood, 20 μL of each osteoclast well supernatant is transferred to a 96 well plate. A 30 μL aliquot of the substrate solution is added to each well and incubated at 37° C. for 20 minutes, then added […] stop solution to each well. The absorbance of each well is read at 405 nm on Safire plate reader. The absorbance reading is plotted vs. concentration to provide the IC50 for each compound.

The subject of assay [2] is PLP139-151-induced relapsing-remitting EAE. Description: PLP139-151-induced relapsing-remitting EAE. The conditions noted are these: mouse, in vivo. Further details: species or system SJL mice. The protocol:
Method: CSF-1R inhibitors as described herein were tested in mouse relapsing-remitting multiple sclerosis (MS) model. […] Female […] mice 6 weeks old were purchased from Harlan and maintained for 1 week prior to beginning the experiment. Mice were randomly assigned into groups of 10 animals (plus the additional mice per group to be used for histology), and primed with 50 μg PLP139-151/CFA on Day 0. On Day 16-20 post disease induction (onset of remission), the experimental compounds in dose groups 2 and 3 were administered daily via gavage to the groups for a period of 3 weeks (with the final treatment on ˜Day 37-41 post disease induction). On Day 10 post disease induction (disease onset) treatment of group 4 began, and continued to the same day as groups 2 and 3 (˜Day 37-41 post disease induction). After administration of the test compounds, the mice were followed until Day 45 to assess clinical disease, delayed type hypersensitivity (DTH), and various in vitro immunological assays. Histological signs of disease at various time points during the disease course were also assessed. […]

For the molecule `COc1ncc(CNc2ccc(Cc3c[nH]c4ncc(Cl)cc34)c(F)n2)cc1F` [Compound P-2165, [5-(5-Chloro-1H-pyrrolo[2,3-b]pyridin-3-ylmethyl)-6-fluoro-pyridin-2-yl]-(5-fluoro-6-methoxy-pyridin-3-ylmethyl)-amine], the IC50 in assay [1] is < 100 nM. For the molecule `Fc1cncc(CNc2ncc(Cc3c[nH]c4ncc(Cl)cc34)cn2)c1` [Compound P-2176, [5-(5-Chloro-1H-pyrrolo[2,3-b]pyridin-3-ylmethyl)-pyrimidin-2-yl]-(5-fluoro-pyridin-3-ylmethyl)-amine], in assay [1], the IC50 was < 100 nM. The same measure, in the same setting: to `COc1ncc(F)cc1CNc1ccc(Cc2c[nH]c3ncc(C#N)cc23)c(F)n1` [Compound P-2193, 3-{2-Fluoro-6-[(5-fluoro-2-methoxy-pyridin-3-ylmethyl)-amino]-pyridin-3-ylmethyl}-1H-pyrrolo[2,3-b]pyridine-5-carbonitrile] belongs < 100 nM. `CCCCCCCCc1ccc(CCC(N)(CO)CO)cc1` [FTY-720]: in assay [2], the “clinical scores after discontinuation of therapy” value was “rapid rebound of clinical scores”.

Usually IC50 stands for the midpoint of a concentration-inhibition curve.
